# Laboratory results taken from ChEMBL document CHEMBL1201862, “PubChem BioAssay data set” (2004).
#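 Briefly, cells in 96-well plates were exposed to five compound concentrations for 48 h, and endpoints were estimated by linear interpolation. Abbreviation: GI50, concentration required for 50% inhibition of growth.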 The source made the active and inactive calls. No stated cut-off is given here; in the data, active = GI50 up to about 1.1 µM and inactive = higher.
# How the values were obtained:
# Assay in all cases: NCI anticancer screen, dose series, 48 h
# DU-145 = tested on: DU-145
# HOP-92 = tested on: HOP-92
# HT-29 = tested on: HT-29
# Hs-578T = tested on: Hs-578T
# MCF7 = tested on: MCF7
# Malme-3M = tested on: Malme-3M
# NCI-H226 = tested on: NCI-H226
# NCI-H23 = tested on: NCI-H23
# NCI-H460 = tested on: NCI-H460
# OVCAR-4 = tested on: OVCAR-4
# OVCAR-8 = tested on: OVCAR-8
# RPMI-8226 = tested on: RPMI-8226
# RXF 393 = tested on: RXF 393
# SK-MEL-5 = tested on: SK-MEL-5
# SN12C = tested on: SN12C
# T47D = tested on: T47D
# UACC-257 = tested on: UACC-257
# HCC 2998 = tested on: HCC 2998
# MOLT-4 = tested on: MOLT-4
Compound,GI50 (DU-145),GI50 (HOP-92),GI50 (HT-29),GI50 (Hs-578T),GI50 (MCF7),GI50 (Malme-3M),GI50 (NCI-H226),GI50 (NCI-H23),GI50 (NCI-H460),GI50 (OVCAR-4),GI50 (OVCAR-8),GI50 (RPMI-8226),GI50 (RXF 393),GI50 (SK-MEL-5),GI50 (SN12C),GI50 (T47D),GI50 (UACC-257),GI50 (HCC 2998),GI50 (MOLT-4)
CN(C)CCCNc1cc(O)c2c(c1O)C(=O)c1ccccc1C2=O,14.8 µM (inactive),12.3 µM (inactive),11 µM (inactive),29.2 µM (inactive),11.6 µM (inactive),31.3 µM (inactive),18.2 µM (inactive),13.3 µM (inactive),6.46 µM (inactive),12.1 µM (inactive),12.6 µM (inactive),12.9 µM (inactive),4.59 µM (inactive),13.2 µM (inactive),3.48 µM (inactive),19 µM (inactive),13.6 µM (inactive),,
Fc1cc(C2=C[C@H](c3ccc4c(c3)OCO4)NC(=S)N2)c(Cl)cc1Cl,49 µM (inactive),25.9 µM (inactive),27.9 µM (inactive),70 µM (inactive),32.2 µM (inactive),30.7 µM (inactive),59.2 µM (inactive),60.8 µM (inactive),25.5 µM (inactive),38.1 µM (inactive),41.2 µM (inactive),22.9 µM (inactive),23 µM (inactive),10.3 µM (inactive),27.4 µM (inactive),20.2 µM (inactive),26.3 µM (inactive),23.2 µM (inactive),23.4 µM (inactive)
CCn1c2c(c3c(C(=O)OC)c(O)ccc31)C(=O)c1ccccc1C2=O,11.1 µM (inactive),5.52 µM (inactive),19.3 µM (inactive),10.1 µM (inactive),16.4 µM (inactive),15.8 µM (inactive),9.18 µM (inactive),18.3 µM (inactive),7.19 µM (inactive),10.2 µM (inactive),11.6 µM (inactive),7.6 µM (inactive),16.1 µM (inactive),11.7 µM (inactive),11.9 µM (inactive),8.07 µM (inactive),40.6 µM (inactive),19.4 µM (inactive),12.1 µM (inactive)
C=CC[C@H]1[C@H](O[Si](C)(C)C(C)(C)C)C=CC(=O)[C@@H]1CC(=O)OCC,16.4 µM (inactive),11.5 µM (inactive),9.06 µM (inactive),19 µM (inactive),11.5 µM (inactive),12.7 µM (inactive),14.8 µM (inactive),15.5 µM (inactive),14 µM (inactive),11.8 µM (inactive),16.4 µM (inactive),2.31 µM (inactive),12.2 µM (inactive),11 µM (inactive),16.3 µM (inactive),6.04 µM (inactive),3.98 µM (inactive),12.9 µM (inactive),22 µM (inactive)
CC1(C)CC2(C)OC(=N)C1(C#N)C2(C#N)C#N (configuration not stated),14.6 µM (inactive),1.57 µM (inactive),2.77 µM (inactive),13 µM (inactive),8.55 µM (inactive),12.3 µM (inactive),> 10 µM (inactive),8.32 µM (inactive),,,18.2 µM (inactive),5.65 µM (inactive),11.6 µM (inactive),8.83 µM (inactive),10.1 µM (inactive),10.7 µM (inactive),7.4 µM (inactive),12.1 µM (inactive),9.53 µM (inactive)
COc1ccc(-c2ccc(C(=O)C=P(c3ccccc3)(c3ccccc3)c3ccccc3)cc2)cc1,14.5 µM (inactive),4.72 µM (inactive),6.05 µM (inactive),23 µM (inactive),10.1 µM (inactive),18.7 µM (inactive),12.9 µM (inactive),18.8 µM (inactive),8.13 µM (inactive),7.96 µM (inactive),,2.12 µM (inactive),13.2 µM (inactive),9.64 µM (inactive),14.9 µM (inactive),5.68 µM (inactive),17.7 µM (inactive),1.79 µM (inactive),4.59 µM (inactive)
Cc1nn(C2OC(CO)C(O)C(F)C2O)c(=O)[nH]c1=O (configuration not stated),> 100 µM (inactive),> 100 µM (inactive),> 100 µM (inactive),> 100 µM (inactive),> 100 µM (inactive),> 100 µM (inactive),> 100 µM (inactive),> 100 µM (inactive),> 100 µM (inactive),> 100 µM (inactive),> 100 µM (inactive),> 100 µM (inactive),,> 100 µM (inactive),> 100 µM (inactive),> 100 µM (inactive),> 100 µM (inactive),> 100 µM (inactive),0.504 µM (active)
CC1(C)CN=C(Nc2ccc(Cl)cc2)S1,> 100 µM (inactive),29.5 µM (inactive),43.1 µM (inactive),> 100 µM (inactive),> 100 µM (inactive),> 100 µM (inactive),> 100 µM (inactive),74.6 µM (inactive),,72.3 µM (inactive),> 100 µM (inactive),52.6 µM (inactive),> 100 µM (inactive),62.7 µM (inactive),> 100 µM (inactive),42.9 µM (inactive),70 µM (inactive),> 100 µM (inactive),58.5 µM (inactive)
O=C(/C=C/c1ccccc1)c1cc(CN2CCOCC2)c(O)c(CN2CCOCC2)c1,16 µM (inactive),12.1 µM (inactive),17.4 µM (inactive),35.6 µM (inactive),14.7 µM (inactive),,26.6 µM (inactive),22.5 µM (inactive),6.71 µM (inactive),,25.2 µM (inactive),4.55 µM (inactive),14.1 µM (inactive),13.1 µM (inactive),11.9 µM (inactive),20 µM (inactive),14.3 µM (inactive),18.6 µM (inactive),16.7 µM (inactive)
OC1CN2Cc3cc4c(cc3[C@]13C=C[C@@H](O)CC23)OCO4 (some centres not stated),8.69 µM (inactive),21.3 µM (inactive),10.9 µM (inactive),57.5 µM (inactive),16.4 µM (inactive),35.8 µM (inactive),> 100 µM (inactive),36.1 µM (inactive),14.4 µM (inactive),19.8 µM (inactive),29.2 µM (inactive),32.6 µM (inactive),15.7 µM (inactive),22.9 µM (inactive),25.1 µM (inactive),4.82 µM (inactive),7.89 µM (inactive),,16.6 µM (inactive)
COP(C)(=O)C1=CCN(C(=O)OCC[Si](C)(C)C)CC1 (configuration not stated),> 100 µM (inactive),> 100 µM (inactive),> 100 µM (inactive),> 100 µM (inactive),> 100 µM (inactive),> 100 µM (inactive),> 100 µM (inactive),> 100 µM (inactive),> 100 µM (inactive),> 100 µM (inactive),> 100 µM (inactive),> 100 µM (inactive),> 100 µM (inactive),> 100 µM (inactive),,> 100 µM (inactive),> 100 µM (inactive),> 100 µM (inactive),
